“And” between values parts separate entries of the source, which are not always exact repeats. Equal values may be shown once. The source made the active and inactive calls.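 The calls were made as follows: active = EC50 no more than a set limit of log units above the highest dose; inactive = the rest.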
Target: S. pyogenes SKKanGAS, kanamycin survival, BacTiterGlo, 6 h
Assay: S. pyogenes SKKanGAS kanamycin growth inhibitors – SKKanGAS strain, luminescence, dose confirmation, streptokinase promoter inhibitor project, dose response (AID 1902);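 also: lower survival reflects blocked streptokinase promoter driving kanamycin resistance gene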

SMILES	EC50
CC(/C=C1\SC(=S)N(NS(=O)(=O)c2ccc(C)cc2)C1=O)=C\c1ccccc1	2880 nM
C/C(=N\NC(=O)c1ccc(-c2ccccc2)cc1)C1C(=O)c2ccccc2C1=O	1100 nM
COc1ccc(-c2cc(-c3ccc(C)cc3)n[nH]2)c(O)c1	2760 nM
O=c1c(O)c(-c2cccs2)oc2ccccc12	3940 nM
O=[N+]([O-])c1ccc(O)c(N=Cc2sc3ccccc3c2O)c1	2970 nM
CCOC(=O)c1c2c(n(C)c1COC)C(=O)C(=O)c1ccc(Br)cc1-2	3660 nM
Cn1c(=O)[nH]c(=O)c2c1nc(N1CCC(Cc3ccccc3)CC1)n2Cc1ccccc1	3910 nM
FC(F)(F)c1cc(-c2ccccc2)nc(N2CCCCCC2)n1	3930 nM
C/C(=N\NC(=O)c1ccc(Cl)c(Cl)c1)c1ccc(Br)s1	563 nM
O=[N+]([O-])c1cccc(/C=C/c2ccc3cccc(O)c3n2)c1	2250 nM
CCCCCCCn1c(=O)c(C(=O)Nc2cnccn2)c(O)c2ccccc21	2160 nM
COc1ccc(-c2csc(NC(=S)NC(=O)c3cccs3)n2)cc1OC	13900 nM
COCc1cc(=O)[nH]c(Nc2nc3ccc(C)cc3o2)n1	2260 nM
Cc1cc(O)c(C(C)C)cc1C1(c2cc(C(C)C)c(O)cc2C)OC(=O)c2ccccc21	1800 nM
CCCCNc1c2c3c(cccc3n(C)c1=O)C(=O)c1ccccc1-2	6260 nM
COc1cccc(NC(=O)NCCCCc2ccccc2)c1	> 15000 nM (inactive)
COC(=O)[C@H]1[C@H](CCc2ccccc2)NC(=O)N(Cc2ccccc2)[C@@H]1C	> 15000 nM (inactive)
Cc1cc(C)nc(-n2nc(C)c(Sc3ccc(F)cc3)c2N)n1	> 15000 nM (inactive)
CC(=O)NC(c1ccc(Cl)cc1Cl)c1ccc2cccnc2c1O (configuration not stated)	4200 nM
Cc1cccc(C)c1NC(=S)N/N=C/c1ccc(OCCC(C)C)cc1	2490 nM
O=C1C(Cl)=C(Nc2ccc3cn[nH]c3c2)C(=O)c2ccccc21	2210 nM
Cc1cc(C)c2[nH]c(O)c(N=Nc3ccc(C(=O)O)cc3)c2c1	1800 nM

SMILES	EC50
Nc1nc(-c2ccccn2)nc(N)c1Cc1ccc(Cl)cc1Cl	5030 nM
Cc1ccc(O)c(C(=O)CC(=O)c2ccc(C(C)(C)C)cc2)c1	2600 nM
O=C(OCc1csc(Nc2ccccc2)n1)c1ccc(Cl)cc1	14300 nM
O=c1c([N+](=O)[O-])cccn1Cc1ccc(F)cc1Cl	3380 nM
Cc1cc(/C=N/n2cnnc2)c(C)n1-c1ccc(OCc2ccc(Cl)cc2Cl)cc1	2100 nM
COc1ccc(OC)c(CCNC(=O)C(=O)Nc2ccc3nc4n(c(=O)c3c2)CCCCC4)c1	10100 nM
COc1ccc2oc(C(=O)Nc3nc4ccccc4[nH]3)c(C)c2c1	5620 nM
N#C/C(=C(/O)Cc1cccc2ccccc12)c1nc2ccccc2s1	1360 nM
COc1ccccc1N=C1NC(=O)/C(=C/c2ccc(N(C)C)cc2)S1	6080 nM
CSc1ccc(S(=O)(=O)NCC(=O)OCC(=O)N2CCCC2=O)cc1[N+](=O)[O-]	9290 nM
COc1ccc(-c2nc(/C=C3\C(C)=Nc4ccccc43)c(O)o2)cc1	3500 nM
Cc1cccc(NCc2nc3ccccc3n2Cc2ccccc2)c1	2750 nM
Clc1ccc2c(N/N=C/c3cccc(Br)c3)ccnc2c1	2860 nM
COc1cc(C(=O)NC(=S)Nc2ccc(NC(=O)c3ccco3)cc2)cc(OC)c1OC	8970 nM
Cc1cccc(CS(=O)(=O)c2nnc([C@H](Cc3ccccc3)NC(=O)OC(C)(C)C)o2)c1	3880 nM
O=C(/C=C/c1cn(-c2ccccc2)nc1-c1ccccc1)Nc1ccc(C(=O)O)cc1	3760 nM
Cc1cc(/C=C2\SC(=S)N(C)C2=O)c(C)n1-c1ccc(O)cc1	2090 nM
O=C(Nc1ccc(Cl)c(Cl)c1)O/N=C/c1ccncc1	2380 nM
O=S(=O)(Nc1c(S(=O)(=O)c2ccccc2)c2nc3ccccc3nc2n1C1CCCCC1)c1ccccc1	2710 nM
Cc1cc(Nc2ccccc2)n(-c2nc3ccccc3[nH]2)n1	2100 nM
Cc1cc(Cl)c2oc(C(=O)N3CCC(O)(c4ccccc4)CC3)c(C)c2c1	7310 nM
O=C(Nc1nc2ccc(F)cc2s1)c1ccccn1	694 nM

SMILES	EC50
O=[N+]([O-])c1cccnc1N1CCC(c2cc(-c3ccc(Cl)cc3)n[nH]2)CC1	2960 nM
CC(=O)[C@@]1(O)C(C)CC2C3C=C(C)C4=Cc5c(cnn5-c5ccccc5)C[C@]4(C)C3C(O)C[C@@]21C (some centres not stated)	3560 nM
CCN(CC(=O)NC(C)(C)C)C(=O)COc1c(Cl)cc(Cl)c2ccc(C)nc12	499 nM
Cc1ccc(Nc2nc3ccccc3[nH]2)nc1	1280 nM
CCOc1ccc(Nc2nc(N3CCCCC3)nc(N3CCCCC3)n2)cc1	650 nM
Cc1ccc(C2C(C(=O)c3cc4ccccc4o3)=C(O)C(=O)N2c2cc(C)on2)cc1 (configuration not stated)	2100 nM
c1ccc(-c2nc(N3CCCCCC3)nc(-n3ccnc3)n2)cc1	2410 nM
C[C@]12CC[C@@H]3c4ccc(OC(=O)c5ccccc5)cc4CC[C@H]3[C@@H]1CC[C@@H]2O	1920 nM
C[N+](C)(C)c1ccc(/C=N/Nc2nc(Cl)c(C#N)c(Cl)c2Cl)cc1	> 15000 nM (inactive)
CC1(C)Cc2c(cnn2-c2ccccc2)-c2c1c1ccccc1n2CC(O)CCl (configuration not stated)	5240 nM
Cc1oc(-c2ccc(F)cc2)nc1CN(Cc1ccccn1)CC1CCCO1 (configuration not stated)	2000 nM
O=C(NCc1nnc(SCC(=O)N2CCOCC2)o1)c1c(F)cccc1F	> 15000 nM (inactive)
Cc1nc2ccccc2c(=O)n1/N=C/c1cc(Br)cc(Br)c1O	3040 nM
CC1(C)COCN1S(=O)(=O)c1ccc(C(=O)Nc2nnc(-c3ccc(Cl)s3)o2)cc1	459 nM
O=C(Nc1nc(N2C(=O)c3ccccc3C2=O)n(-c2ccccc2)n1)c1ccc(Cl)cc1	10300 nM
c1ccc2sc(SCSc3nc4ccccc4s3)nc2c1	2860 nM
CCN(CC)c1nc(Nc2ccc([N+](=O)[O-])cc2)nc(N(CC)CC)n1	3150 nM
O=C(CSc1nnc(NC(=O)c2cccc(F)c2)s1)NCC1CCCO1 (configuration not stated)	> 15000 nM (inactive)
CSc1nsc2nc(=O)c(/C=C3\C=Nc4ccccc43)c(N)n12	3570 nM
CC1=NN(C(N)=S)C(=O)C1N=Nc1c(Br)cc(Br)cc1Br (configuration not stated)	2780 nM
COC(=O)c1ccc(CN(c2ccc(C(=O)O)c(O)c2)S(=O)(=O)c2ccc(Cl)c([N+](=O)[O-])c2)cc1	2630 nM
CC1CCN(c2ccccc2NC(=O)c2cc3ccccc3o2)CC1	11700 nM

SMILES	EC50
CC(C)=CCc1cc([C@@H]2CC(=O)c3ccc(O)c(CC=C(C)C)c3O2)ccc1O	3630 nM
Cc1ccc(NC(=S)NNC(=S)Nc2cccc(C(F)(F)F)c2)cc1	2040 nM
N=C1S/C(=C\c2cn[nH]c2-c2ccc(F)cc2)C(=O)N1c1ccccc1F	3650 nM
Cc1ccc(NC(=S)c2nc3ccccc3[nH]2)cc1	1080 nM
Cc1nn2c(NCc3ccccn3)cc(C(C)C)nc2c1-c1ccccc1	5940 nM
Cc1cc(NC(=S)N(Cc2ccc(Cl)cc2)Cc2ccc(C(=O)O)cc2)ccc1Cl	6930 nM
CCc1nn(CCCC(=O)NCc2ccccc2Br)c(=O)c2cc3occc3n12	2550 nM
COc1ccc(S(=O)(=O)N[C@@H](C)C(=O)OCC(=O)Nc2cc3oc4ccccc4c3cc2OC)cc1	1420 nM
CCCCNc1c(-c2ccc(-c3ccc(C(C)=O)cc3)c(OC)c2)nc2cnccn12	5580 nM
COc1ccc(N(CC(=O)NCCSCc2cccc(Cl)c2)S(C)(=O)=O)cc1Cl	4720 nM
Cc1nn(-c2ccccc2)c(Cl)c1C1C(C#N)=C(N)Oc2c1c(=O)oc1ccccc21 (configuration not stated)	112 nM
CCc1nc(N)nc(N)c1-c1ccc(Cl)cc1	3990 nM
CCOc1ccc(C(=O)NC(=S)Nc2ccc(NC(=O)CC)cc2)cc1[N+](=O)[O-]	4350 nM
Cc1noc(C)c1CSc1nc2sc(C)c(C)c2c(=O)n1C1CCCC1	2940 nM
C/C(=N/Nc1cc(-c2ccccc2)nc(-c2ccccc2)n1)c1ccc(O)cc1	2080 nM
CC1=C/C(=N\NC(=S)NCCc2ccccc2)CC(C)(C)C1	2580 nM
O=C1c2cccc3c([N+](=O)[O-])ccc(c23)C(=O)N1O	1160 nM
O=C(Nc1nnc(-c2ccccn2)o1)c1cccc(Cl)c1	1660 nM
COc1ccc(/C=C2/C(=O)N(c3nc4ccccc4s3)N=C2CSc2ccc(Cl)cc2)cc1	518 nM
CC(C)c1ccc(C(=O)NC(=S)Nc2ccc3[nH]c(=O)[nH]c3c2)cc1	6260 nM
Cc1ccc(C(O)(C(=O)NNc2ccc3ccccc3n2)c2ccc(C)cc2)cc1	2040 nM and 2980 nM
O=C(NNC(=S)NC(=O)c1ccccc1)c1ccc(O)cc1	2260 nM

SMILES	EC50
OCCN(CCO)c1ccc(C(c2ccccc2Cl)c2ccc(N(CCO)CCO)cc2Cl)c(Cl)c1	5060 nM
CC(C)=CCc1c2c(c3occ(-c4ccc(O)cc4)c(=O)c3c1O)C=CC(C)(C)O2	876 nM
CC1CCN(Cc2c(C(=O)N/N=C/c3cc(Br)ccc3O)nnn2-c2nonc2N)CC1	10200 nM
O=[N+]([O-])c1ccc(-c2cnc(SC(c3ccccc3)c3ccccc3)[nH]2)cc1	11000 nM
Cc1cc(Nc2ccccc2)nn1C(=O)c1ccc(Br)cc1	14600 nM
O=C(Nc1ccccc1)Nc1cc(Cl)cc(Cl)c1	6800 nM
COc1ccc(-c2nnc(NC(=O)c3ccc(S(=O)(=O)N4CCCc5ccccc54)cc3)o2)cc1	149 nM
CC(C)S(=O)(=O)c1csc(NC(=O)Nc2cc(Cl)ccc2Cl)c1Cl	1650 nM
COc1ccccc1OCC(=O)NNC(=S)NC(=O)c1ccco1	2390 nM
CS(=O)(=O)c1ccc([C@@H](O)[C@@H](CO)NC(=O)C(Cl)Cl)cc1	740 nM
Cc1cccc(CC(Cc2nc3ccccc3[nH]2)c2nc3ccccc3[nH]2)c1 (configuration not stated)	9880 nM
CC(Oc1ccc(Cl)cc1Cl)C(=O)Nc1ccc2oc(-c3ccncc3)nc2c1 (configuration not stated)	6240 nM
COc1cccc(/C=C/C(=C2/C(=O)N(c3ccccc3)N=C2C)c2ccc(Br)cc2)c1OC	> 15000 nM (inactive)
CCC(CC)C1=NN2C(=N)/C(=C\c3cc(C)n(-c4cccc(C)c4)c3C)C(=O)N=C2S1	2900 nM
Cc1ccc(C2C(/C=C3/SC(=S)NC3=O)=C(c3cccs3)Oc3ccccc32)cc1 (configuration not stated)	643 nM
O=[N+]([O-])c1cc(C(F)(F)F)ccc1NCCNC(=S)Nc1ccc(Cl)cc1	4790 nM
CCC1CCCCN1c1cc(C)nc2cc(-c3cccc(C)c3)nn12 (configuration not stated)	6590 nM
Cn1c(-c2cc(Br)ccc2O)n[nH]c1=S	9920 nM
CC1CCCCN1S(=O)(=O)c1ccc(C(=O)Nc2nnc(-c3cccs3)o2)cc1 (configuration not stated)	659 nM

Reference: PubChem BioAssay AID1902 (Broad Institute, 2009)
